Results published in ChEMBL document CHEMBL4765227, “Hit to lead optimization of a series of N-[4-(1,3-benzothiazol-2-yl)phenyl]acetamides as monoacylglycerol lipase inhibitors with potential anticancer activity” (Eur J Med Chem, 2016).

Tests used:
Assay type in all cases: functional
Conditions in all cases: read-out: GI
[1] = tested on: Hs-578T; experiment: Growth inhibition of human Hs-578T cells at 10 uM incubated for 48 hrs by sulforhodamine B assay relative to control
[2] = tested on: MDA-MB-435; experiment: Growth inhibition of human MDA-MB-435 cells at 10 uM incubated for 48 hrs by sulforhodamine B assay relative to control
[3] = tested on: UACC-62; experiment: Growth inhibition of human UACC-62 cells at 10 uM incubated for 48 hrs by sulforhodamine B assay relative to control
[4] = tested on: HCC 2998; experiment: Growth inhibition of human HCC 2998 cells at 10 uM incubated for 48 hrs by sulforhodamine B assay relative to control
[5] = tested on: SR; experiment: Growth inhibition of human SR cells at 10 uM incubated for 48 hrs by sulforhodamine B assay relative to control
[6] = tested on: K562; experiment: Growth inhibition of human K562 cells at 10 uM incubated for 48 hrs by sulforhodamine B assay relative to control
[7] = tested on: SF-295; experiment: Growth inhibition of human SF-295 cells at 10 uM incubated for 48 hrs by sulforhodamine B assay relative to control
[8] = tested on: SF-539; experiment: Growth inhibition of human SF-539 cells at 10 uM incubated for 48 hrs by sulforhodamine B assay relative to control
[9] = tested on: UO-31; experiment: Growth inhibition of human UO-31 cells at 10 uM incubated for 48 hrs by sulforhodamine B assay relative to control
[10] = tested on: SK-OV-3; experiment: Growth inhibition of human SK-OV-3 cells at 10 uM incubated for 48 hrs by sulforhodamine B assay relative to control
[11] = tested on: DU-145; experiment: Growth inhibition of human DU-145 cells at 10 uM incubated for 48 hrs by sulforhodamine B assay relative to control
[12] = tested on: RXF 393; experiment: Growth inhibition of human RXF 393 cells at 10 uM incubated for 48 hrs by sulforhodamine B assay relative to control
[13] = tested on: BT-549; experiment: Growth inhibition of human BT-549 cells at 10 uM incubated for 48 hrs by sulforhodamine B assay relative to control
[14] = tested on: U-251; experiment: Growth inhibition of human U-251 cells at 10 uM incubated for 48 hrs by sulforhodamine B assay relative to control
[15] = tested on: SK-MEL-5; experiment: Growth inhibition of human SK-MEL-5 cells at 10 uM incubated for 48 hrs by sulforhodamine B assay relative to control
[16] = tested on: HT-29; experiment: Growth inhibition of human HT-29 cells at 10 uM incubated for 48 hrs by sulforhodamine B assay relative to control
[17] = tested on: MDA-MB-468; experiment: Growth inhibition of human MDA-MB-468 cells at 10 uM incubated for 48 hrs by sulforhodamine B assay relative to control
[18] = tested on: MCF7; experiment: Growth inhibition of human MCF7 cells at 10 uM incubated for 48 hrs by sulforhodamine B assay relative to control
[19] = tested on: T47D; experiment: Growth inhibition of human T47D cells at 10 uM incubated for 48 hrs by sulforhodamine B assay relative to control
[20] = tested on: NCI-H322M; experiment: Growth inhibition of human NCI-H322M cells at 10 uM incubated for 48 hrs by sulforhodamine B assay relative to control
[21] = tested on: RPMI-8226; experiment: Growth inhibition of human RPMI-8226 cells at 10 uM incubated for 48 hrs by sulforhodamine B assay relative to control
[22] = tested on: SF-268; experiment: Growth inhibition of human SF-268 cells at 10 uM incubated for 48 hrs by sulforhodamine B assay relative to control
[23] = tested on: PC-3; experiment: Growth inhibition of human PC-3 cells at 10 uM incubated for 48 hrs by sulforhodamine B assay relative to control
[24] = tested on: A549; experiment: Growth inhibition of human A549/ATCC cells at 10 uM incubated for 48 hrs by sulforhodamine B assay relative to control
[25] = tested on: NCI-H23; experiment: Growth inhibition of human NCI-H23 cells at 10 uM incubated for 48 hrs by sulforhodamine B assay relative to control
[26] = tested on: HL-60(TB); experiment: Growth inhibition of human HL-60(TB) cells at 10 uM incubated for 48 hrs by sulforhodamine B assay relative to control
[27] = tested on: OVCAR-8; experiment: Growth inhibition of human OVCAR-8 cells at 10 uM incubated for 48 hrs by sulforhodamine B assay relative to control
[28] = tested on: ACHN; experiment: Growth inhibition of human ACHN cells at 10 uM incubated for 48 hrs by sulforhodamine B assay relative to control
[29] = tested on: NCI-H522; experiment: Growth inhibition of human NCI-H522 cells at 10 uM incubated for 48 hrs by sulforhodamine B assay relative to control
[30] = tested on: UACC-257; experiment: Growth inhibition of human UACC-257 cells at 10 uM incubated for 48 hrs by sulforhodamine B assay relative to control
[31] = tested on: OVCAR-5; experiment: Growth inhibition of human OVCAR-5 cells at 10 uM incubated for 48 hrs by sulforhodamine B assay relative to control
[32] = tested on: NCI-H226; experiment: Growth inhibition of human NCI-H226 cells at 10 uM incubated for 48 hrs by sulforhodamine B assay relative to control
[33] = tested on: SNB-19; experiment: Growth inhibition of human SNB-19 cells at 10 uM incubated for 48 hrs by sulforhodamine B assay relative to control
[34] = tested on: OVCAR-3; experiment: Growth inhibition of human OVCAR-3 cells at 10 uM incubated for 48 hrs by sulforhodamine B assay relative to control
[35] = tested on: Malme-3M; experiment: Growth inhibition of human Malme-3M cells at 10 uM incubated for 48 hrs by sulforhodamine B assay relative to control
[36] = tested on: 786-0; experiment: Growth inhibition of human 786-0 cells at 10 uM incubated for 48 hrs by sulforhodamine B assay relative to control
[37] = tested on: M14; experiment: Growth inhibition of human M14 cells at 10 uM incubated for 48 hrs by sulforhodamine B assay relative to control
[38] = tested on: SN12C; experiment: Growth inhibition of human SN12C cells at 10 uM incubated for 48 hrs by sulforhodamine B assay relative to control
[39] = tested on: TK-10; experiment: Growth inhibition of human TK-10 cells at 10 uM incubated for 48 hrs by sulforhodamine B assay relative to control
[40] = tested on: MDA-MB-231; experiment: Growth inhibition of human MDA-MB-231 cells at 10 uM incubated for 48 hrs by sulforhodamine B assay relative to control
[41] = tested on: MOLT-4; experiment: Growth inhibition of human MOLT-4 cells at 10 uM incubated for 48 hrs by sulforhodamine B assay relative to control
[42] = tested on: OVCAR-4; experiment: Growth inhibition of human OVCAR-4 cells at 10 uM incubated for 48 hrs by sulforhodamine B assay relative to control
[43] = tested on: KM12; experiment: Growth inhibition of human KM12 cells at 10 uM incubated for 48 hrs by sulforhodamine B assay relative to control
[44] = tested on: IGROV-1; experiment: Growth inhibition of human IGROV-1 cells at 10 uM incubated for 48 hrs by sulforhodamine B assay relative to control

For O=C(CN1C(=O)C(=O)c2ccccc21)Nc1ccc(-c2nc3ccccc3s2)cc1, the inhibition of growth at 10 µM [1] was -14.2%, the inhibition of growth at 10 µM [2] was -3.52% and the inhibition of growth at 10 µM [3] was -6.27%. It also gave an inhibition of growth at 10 µM [4] of -1.9%, an inhibition of growth at 10 µM [5] of 15.2% and an inhibition of growth at 10 µM [6] of 21.3%. For the same molecule, the inhibition of growth at 10 µM [7] was 0.13%, the inhibition of growth at 10 µM [8] was -0.12% and the inhibition of growth at 10 µM [9] was 15.5%. The inhibition of growth at 10 µM [10] was -10.3%, the inhibition of growth at 10 µM [11] was 2.58% and the inhibition of growth at 10 µM [12] was 4.81%. The inhibition of growth at 10 µM [13] was -3.83%, the inhibition of growth at 10 µM [14] was 8.34% and the inhibition of growth at 10 µM [15] was 16.6%. It also gave an inhibition of growth at 10 µM [16] of -6.9%, an inhibition of growth at 10 µM [17] of 72.6% and an inhibition of growth at 10 µM [18] of 44.5%. For the same molecule, the inhibition of growth at 10 µM [19] was 29.4%, the inhibition of growth at 10 µM [20] was -0.03% and the inhibition of growth at 10 µM [21] was 15%. It also gave an inhibition of growth at 10 µM [22] of 10.9%, an inhibition of growth at 10 µM [23] of 28.6% and an inhibition of growth at 10 µM [24] of 2.72%. The inhibition of growth at 10 µM [25] was 4.61%, the inhibition of growth at 10 µM [26] was 5.84% and the inhibition of growth at 10 µM [27] was 4.11%. For the same molecule, the inhibition of growth at 10 µM [28] was -0.81%, the inhibition of growth at 10 µM [29] was 4.88% and the inhibition of growth at 10 µM [30] was -12.4%. The inhibition of growth at 10 µM [31] was -12.7%, the inhibition of growth at 10 µM [32] was 9.37% and the inhibition of growth at 10 µM [33] was 5.55%. The inhibition of growth at 10 µM [34] was 10.9%, the inhibition of growth at 10 µM [35] was -2.34% and the inhibition of growth at 10 µM [36] was -6.97%. It also gave an inhibition of growth at 10 µM [37] of -6.04%, an inhibition of growth at 10 µM [38] of 4.5% and an inhibition of growth at 10 µM [39] of -13.3%. The inhibition of growth at 10 µM [40] was 6.18%, the inhibition of growth at 10 µM [41] was 47.5% and the inhibition of growth at 10 µM [42] was 4.68%. For the same molecule, the inhibition of growth at 10 µM [43] was 0.88% and the inhibition of growth at 10 µM [44] was -0.62%.

With O=C(CN(c1ccccc1)c1ccccc1)Nc1ccc(-c2nc3ccccc3s2)cc1 the inhibition of growth at 10 µM [1] was 14.3%, the inhibition of growth at 10 µM [2] was -4.11% and the inhibition of growth at 10 µM [3] was 2.85%. It also gave an inhibition of growth at 10 µM [4] of -1.62%, an inhibition of growth at 10 µM [5] of 2.68% and an inhibition of growth at 10 µM [6] of 3.89%. For the same molecule, the inhibition of growth at 10 µM [7] was -3.15%, the inhibition of growth at 10 µM [8] was 4.21% and the inhibition of growth at 10 µM [9] was 3.62%. For the same molecule, the inhibition of growth at 10 µM [10] was -11.4%, the inhibition of growth at 10 µM [11] was -5.31% and the inhibition of growth at 10 µM [12] was -5.12%. The inhibition of growth at 10 µM [13] was -12.2%, the inhibition of growth at 10 µM [14] was -5.92% and the inhibition of growth at 10 µM [15] was 7.11%. For the same molecule, the inhibition of growth at 10 µM [16] was -5.89%, the inhibition of growth at 10 µM [17] was 61.3% and the inhibition of growth at 10 µM [18] was 52%. It also gave an inhibition of growth at 10 µM [19] of 13.6%, an inhibition of growth at 10 µM [20] of -4.73% and an inhibition of growth at 10 µM [21] of -15.6%. The inhibition of growth at 10 µM [22] was -3.74%, the inhibition of growth at 10 µM [23] was 2.35% and the inhibition of growth at 10 µM [24] was -5.7%. It also gave an inhibition of growth at 10 µM [25] of 3.7%, an inhibition of growth at 10 µM [26] of -1.45% and an inhibition of growth at 10 µM [27] of -0.82%. The inhibition of growth at 10 µM [28] was -13.4%, the inhibition of growth at 10 µM [29] was 2.41% and the inhibition of growth at 10 µM [30] was -8.16%. The inhibition of growth at 10 µM [31] was -6.47%, the inhibition of growth at 10 µM [32] was -5.48% and the inhibition of growth at 10 µM [33] was -7.16%. The inhibition of growth at 10 µM [34] was -4.14%, the inhibition of growth at 10 µM [35] was -3.98% and the inhibition of growth at 10 µM [36] was -1.87%. It also gave an inhibition of growth at 10 µM [37] of -10.1%, an inhibition of growth at 10 µM [38] of -3.04% and an inhibition of growth at 10 µM [39] of -2.02%. The inhibition of growth at 10 µM [40] was -3.01%, the inhibition of growth at 10 µM [41] was -4.25% and the inhibition of growth at 10 µM [42] was -13.3%. It also gave an inhibition of growth at 10 µM [43] of -6.94% and an inhibition of growth at 10 µM [44] of 4.71%.
